We go through 13 compounds from ChEMBL document CHEMBL1201862, “PubChem BioAssay data set” (2004).

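48-hour exposure; five concentrations; linearly interpolated endpoints. The concentration for 50% growth inhibition is given as GI50.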 The source made the active and inactive calls. Rule as the data show it: active = GI50 up to about 1.1 µM and inactive = higher.

Some test systems named below: HOP-62; NCI/ADR-RES; SF-268; SNB-75; HT-29; A549; A498; SF-539; DU-145; KM12; PC-3; UACC-62; MOLT-4; EKVX; SK-MEL-28; HCT-15; HOP-92.
Common to all, as to assay: inhibition of tumour cell growth, NCI panel, 48 h

Take `O=C(CC(C(=O)c1cccs1)c1ccsc1)c1ccc(Cl)s1` (configuration not stated): the GI50 in the assay with HOP-62 is > 100 µM (inactive); in the assay on NCI/ADR-RES it was 12.1 µM (inactive); in the assay with SF-268, > 100 µM (inactive); in the assay with SNB-75, > 100 µM (inactive); in the assay with HT-29 it was 75.9 µM (inactive); in the assay on A549 it was > 100 µM (inactive). Moreover, the GI50 in the assay on A498 is > 100 µM (inactive); in the assay with SF-539, > 100 µM (inactive); in the assay with DU-145, > 100 µM (inactive); in the assay on KM12, > 100 µM (inactive); with PC-3 it was > 100 µM (inactive); in the assay with UACC-62, 99.3 µM (inactive). The GI50 is 47.3 µM (inactive) with MOLT-4, 50.7 µM (inactive) with EKVX, > 100 µM (inactive) in the assay on SK-MEL-28 and 73.3 µM in the assay on HCT-15.
As for `Clc1sc(Cl)c2c1[C@@H](Cl)C[C@@H]2Br`, the GI50 with HOP-62 was > 100 µM (inactive); with SF-268, > 100 µM (inactive); in the assay on SNB-75 it was > 100 µM (inactive); in the assay with HT-29, > 100 µM (inactive); with A549, 83.8 µM (inactive); in the assay on DU-145 it was > 100 µM (inactive). Moreover, the GI50 in the assay on KM12 is 90.6 µM (inactive); in the assay with HOP-92, 37.4 µM (inactive); in the assay on PC-3, > 100 µM (inactive); with UACC-62, 68.2 µM (inactive); in the assay with MOLT-4, 18.6 µM (inactive); in the assay with EKVX, > 100 µM (inactive). The GI50 in the assay on SK-MEL-28 was > 100 µM (inactive); in the assay on HCT-15, 97.1 µM.
`O=C(NCCNCCO)N/N=C/c1ccc(Cl)cc1`: the GI50 in the assay with HOP-62 was > 100 µM (inactive); in the assay with NCI/ADR-RES, > 100 µM (inactive); with SF-268, > 100 µM (inactive); in the assay on SNB-75 it was 36.1 µM (inactive); in the assay on HT-29, > 100 µM (inactive); with A549 it was > 100 µM (inactive). The GI50 in the assay with A498, with SF-539, in the assay with DU-145, with KM12, in the assay on PC-3 and in the assay on UACC-62 was > 100 µM (inactive) each time. In addition, the GI50 with MOLT-4 is > 100 µM (inactive); in the assay on SK-MEL-28, > 100 µM (inactive); in the assay with HCT-15, greater than 100 µM.
`CC1(C)C2CCC(=O)C1CC2` (configuration not stated): the GI50 in the assay on HOP-62, with NCI/ADR-RES, in the assay on SF-268, with SNB-75, in the assay on HT-29 and in the assay with A549 was > 100 µM (inactive) in each case. Besides, the GI50 in the assay on A498, with SF-539, with DU-145, with KM12, in the assay on PC-3 and with UACC-62 was > 100 µM (inactive) each time. Also, the results for the GI50 in the assay on MOLT-4, in the assay with SK-MEL-28 and in the assay with HCT-15 were > 100 µM (inactive), > 100 µM (inactive) and greater than 100 µM, respectively.
For the compound `COCP1(=S)OC(C)CCN1C(C)C` (configuration not stated), the GI50 with HOP-62, in the assay with NCI/ADR-RES, with SF-268, in the assay with HT-29, in the assay with A549 and in the assay with SF-539 was > 100 µM (inactive) throughout. Further, the GI50 was > 100 µM (inactive) in the assay on DU-145; > 100 µM (inactive) in the assay on KM12; > 100 µM (inactive) in the assay on PC-3; > 100 µM (inactive) with UACC-62; > 100 µM (inactive) with EKVX; greater than 100 µM in the assay on HCT-15.
Turning to `CC(C)=CCC[C@](C)(O[C@@H]1O[C@H](CO)[C@@H](O)[C@H](O)[C@H]1O)[C@H]1CC[C@]2(C)[C@@H]1[C@H](O)C[C@@H]1[C@@]3(C)CC[C@H](O)C(C)(C)[C@@H]3[C@@H](O[C@@H]3O[C@H](CO)[C@@H](O)[C@H](O)[C@H]3O)C[C@]12C` [GINSENOSIDE RG1], the GI50 with HOP-62, with SF-268, in the assay on SNB-75, with HT-29, in the assay with A549 and with A498 was > 100 µM (inactive) in each case. The GI50 in the assay with SF-539, in the assay with DU-145, in the assay on KM12, with HOP-92, in the assay with PC-3 and with UACC-62 was > 100 µM (inactive) each time. Further, the GI50 in the assay on EKVX was > 100 µM (inactive); with SK-MEL-28 it was > 100 µM (inactive); with HCT-15, greater than 100 µM.
On to `CC1CC(c2ccccc2)Nc2nc3ccccc3n21` (configuration not stated), for which the GI50 with HOP-62 was > 100 µM (inactive); in the assay on NCI/ADR-RES, > 100 µM (inactive); in the assay on SF-268 it was > 100 µM (inactive); in the assay with SNB-75 it was > 100 µM (inactive); with HT-29, 39.1 µM (inactive); in the assay on A549, > 100 µM (inactive). In addition, the GI50 with A498, in the assay with SF-539, in the assay on KM12, in the assay on HOP-92, with PC-3 and in the assay on UACC-62 was > 100 µM (inactive) throughout. Also, the GI50 was > 100 µM (inactive) with MOLT-4, > 100 µM (inactive) in the assay on EKVX, > 100 µM (inactive) in the assay on SK-MEL-28 and greater than 100 µM in the assay on HCT-15.
Turning to `CC(=O)C(C)C(=O)N1C(=O)N(C)C2(C)N(C)C(=O)NC12C` (configuration not stated), the GI50 with HOP-62, in the assay with NCI/ADR-RES, with SF-268, with SNB-75, in the assay on HT-29 and in the assay with A549 was > 100 µM (inactive) in each case. Besides, the GI50 in the assay with SF-539, with DU-145, in the assay on KM12, in the assay on HOP-92, in the assay with UACC-62 and with EKVX was > 100 µM (inactive) in each case. For the same compound, the GI50 in the assay with SK-MEL-28 is > 100 µM (inactive); with HCT-15, greater than 100 µM.
As for `CC(=O)Oc1ccc2c(-c3ccccc3)c(Oc3ccc(Cl)cc3)c(=O)oc2c1`, the GI50 is 18.3 µM (inactive) with HOP-62; 6.17 µM (inactive) in the assay with SF-268; 7.45 µM (inactive) in the assay on SNB-75; 20.8 µM (inactive) with HT-29; 13.7 µM (inactive) with A549; 17 µM (inactive) in the assay with A498. The GI50 in the assay with SF-539 is 16.4 µM (inactive); in the assay on DU-145, 14.4 µM (inactive); in the assay on KM12, 14.4 µM (inactive); in the assay on HOP-92, 10.4 µM (inactive); in the assay with PC-3, 23.1 µM (inactive); in the assay with MOLT-4 it was 18.1 µM (inactive). Besides, the GI50 in the assay with EKVX is 15.6 µM (inactive); in the assay on SK-MEL-28, 17.7 µM (inactive); in the assay on HCT-15, 3.16 µM.
On to `CSc1csc(-c2ccc(-c3ccc(-c4cc(SC)cs4)s3)s2)c1`, for which the GI50 in the assay on HOP-62, in the assay with NCI/ADR-RES, in the assay on SF-268, in the assay on SNB-75, in the assay with HT-29 and in the assay on A549 was > 100 µM (inactive) throughout. The GI50 in the assay with SF-539, with KM12, in the assay on PC-3, with UACC-62, in the assay with MOLT-4 and with EKVX was > 100 µM (inactive) in each case. The GI50 was > 100 µM (inactive) in the assay on SK-MEL-28 and greater than 100 µM in the assay on HCT-15.
Turning to `COc1ccc(-c2c(/C=N/OCC(=O)O)c3sc4ccccc4n3c2/C=N/OCC(=O)O)cc1`, the GI50 in the assay with HOP-62, with NCI/ADR-RES, with SF-268, with SNB-75, in the assay on HT-29 and with A549 was > 50 µM (inactive) in each case. Besides, the GI50 in the assay on DU-145 is > 50 µM (inactive); in the assay with KM12, > 50 µM (inactive); with HOP-92, 21.8 µM (inactive); with PC-3, > 50 µM (inactive); with UACC-62, > 50 µM (inactive); in the assay with MOLT-4 it was > 50 µM (inactive). Further, the values for the GI50 in the assay on EKVX, in the assay on SK-MEL-28 and with HCT-15 were > 50 µM (inactive), > 50 µM (inactive) and greater than 50 µM, respectively.
As to `c1ccc2c(c1)SCCCSCCSCCCS2`, the GI50 in the assay with HOP-62, with NCI/ADR-RES, in the assay with SF-268, in the assay with SNB-75, in the assay with HT-29 and in the assay with A549 was > 100 µM (inactive) in each case. The GI50 is > 100 µM (inactive) with SF-539; > 100 µM (inactive) in the assay with DU-145; > 100 µM (inactive) with KM12; 48.9 µM (inactive) in the assay on HOP-92; > 100 µM (inactive) in the assay on PC-3; > 100 µM (inactive) with UACC-62. Further, the GI50 is > 100 µM (inactive) in the assay on MOLT-4, 99.8 µM (inactive) in the assay with EKVX, > 100 µM (inactive) in the assay with SK-MEL-28 and greater than 100 µM in the assay with HCT-15.
Take `CC12CC(c3ccccc3O1)C(C(=O)Nc1cccc(F)c1)C(=O)N2` (configuration not stated): the GI50 in the assay on HOP-62 is > 100 µM (inactive); in the assay on NCI/ADR-RES it was 26.6 µM (inactive); in the assay with SF-268, > 100 µM (inactive); in the assay with HT-29, 55.8 µM (inactive); in the assay on A549 it was 52.1 µM (inactive); in the assay on A498 it was > 100 µM (inactive). In addition, the GI50 was > 100 µM (inactive) with SF-539; > 100 µM (inactive) in the assay on DU-145; 49.7 µM (inactive) with KM12; 49.1 µM (inactive) with PC-3; 52.6 µM (inactive) with UACC-62; 18.8 µM (inactive) in the assay with MOLT-4. The GI50 with EKVX is 31.6 µM (inactive); in the assay on SK-MEL-28, 78.2 µM (inactive); in the assay with HCT-15, 42.9 µM.
